From US20080220416A1, “Compositions for Inhibiting Cell Growth and Inducing Apoptosis in Cancer Cells and Methods of Use Thereof” (THE BOARD OF TRUSTEES OF THE UNIVERSITY OF ILLINOI, priority 2004, published 2008)
Square brackets hold non-standard residues; d marks the D form. Peptide text beside a SMILES is read from it. * marks the point of attachment. Nle = CCCC[C@H](N)C(=O)O; Cbz = O=C(OCc1ccccc1)*

Test system: CaSki human cervical cancer cells
Assay: Cell growth inhibition assay in CaSki cervical cancer cells (crystal violet)
Format: cell-based
Description: The cell growth inhibition assay was performed in a 96-well plate format. Inhibition was assessed by monitoring the protein content in each well using the crystal violet staining method as described by Skehan et al., 1990, J Natl Cancer Inst 82:1107-1112 and Prochaska et al., 1988, Anal Biochem 169:328-336. Briefly, cells were plated at a density of 2×10^4 cells/ml in 200 μl of DMEM supplemented with 10% FBS. The cells were transfected with siRNAs ([…] siRNA oligos/well) using Oligofectamine Transfection Reagents (InVitrogen) according to manufacturer's instructions. Twenty-four hours post-transfection, the media was decanted, 190 μl of fresh media was added to each well, and 10 μl of cisplatin (4 mM) dissolved in 10% DMSO was added to the wells as a series 2-fold dilutions (final concentration of cisplatin in the wells ranged from 0.5-200 μM). The cells were incubated with cisplatin for 48 hrs, the media was decanted, and the cells were submerged with 200 μl of 0.2% crystal violet in 2% ethanol for 10 min. The plates were rinsed for 2 min with tap water. The bound dye was solublized by incubation at 37° C. for 1 h with 200 μl of 0.5% sodium dedecyl sulfate in 50% ethanol. The plates were then scanned with an ELISA reader at 562 nm. The percentage cell growth inhibition mediated by cisplatin was calculated as: % inhibition=[1-(OD of cisplatin-treated cells/OD DMSO-treated control cells)]×100/100.
CaSki human cervical cancer cells treated for 48 hrs with z-Leu-Leu-Nle-CHO alone were tested for cell growth inhibition. The cell growth inhibition assay was performed in a 96-well plate format. Inhibition was assessed by monitoring the protein content in each well using the crystal violet staining method Skehan, P. et al., 1990, J Natl Cancer Inst 82:1107-1112. Briefly, cells were plated at a density of 2×10^4 cells/ml in 200 μl of DMEM supplemented with 10% FBS. After pre-incubation period of 24 h, the media was decanted, 190 μl of fresh media was added to each well, and 10 μl (150 μM) of z-Leu-Leu-Nle-CHO dissolved in 10% DMSO was added to the wells as a series 2-fold dilutions (final concentration of cisplatin in the wells ranged from 0.05-7.5 μM). The cells were incubated with z-Leu-Leu-Nle-CHO for 48 hrs, the media was decanted, and the cells were submerged with 200 μl of 0.2% crystal violet in 2% ethanol for 10 min. The plates were rinsed for 2 min with tap water. The bound dye was solublized by incubation at 37° C. for 1 h with 200 μl of 0.5% sodium dedecyl sulfate in 50% ethanol. The plates were then scanned with an ELISA reader at 562 nm. The percentage cell growth inhibition mediated by test agents was calculated as: % inhibition=[1-(OD of z-Leu-Leu-Nle-CHO-treated cells/OD DMSO-treated control cells)]×100/100.
To determine whether z-Leu-Leu-Nle-CHO treatment potentiates the effect of cisplatin on human […] cancer cells, the CaSki cells were treated for 48 h with 0.1-0.8 μM z-Leu-Leu-Nle-CHO and various concentrations of cisplatin (2-fold dilutions of a cisplatin solution to produce final concentrations of 1.6-200 μM cisplatin). Following the z-Leu-Leu-Nle-CHO and cisplatin treatment, the cells were tested for growth inhibition as described above.
Isobologram analysis was performed by measuring the IC50 values of cisplatin in the presence of various concentrations of z-Leu-Leu-Nle-CHO. These IC50 values were plotted with SigmaPlot, and a straight line was traced between the IC50 values of cells treated with either cisplatin or z-Leu-Leu-Nle-CHO alone.

IC50 (Homo sapiens, Ca-Ski, alone, 48 hrs, read-out: IC50, cell growth inhibition) [nM]	Compound	effect on cytotoxicity of cisplatin (siRNA 24 h before cisplatin)	effect on cisplatin cell growth inhibition (0.1-0.8 μM, doses lower than IC50, 48 h)	isobologram analysis with cisplatin (especially at low cisplatin concentrations (1-50 μM))
–	5′-AAGTGTCTGAGGCCAGCAAGA-3′ [Notch-1 siRNA]	strikingly potentiated the cytotoxicity of cisplatin	–	–
640	CCCC[C@@H](C=O)NC(=O)[C@H](CC(C)C)NC(=O)[C@H](CC(C)C)NC(=O)OCc1ccccc1 [z-Leu-Leu-Nle-CHO, N-benzyloxycarbonyl-leucyl-leucyl-norleucinal] (Cbz-Leu-Leu-[Nle]-aldehyde)	–	potentiated the effects of cisplatin	moderate synergism
